Columns and labels:
[1] = biological target: T1, WRN [UniPro: Q14191 (WRN_HUMAN), N500-C946] (Homo sapiens (Human), UniProt Q14191); assay: WRN ATPase assay (ADP-Glo); type: biochemical; settings: WRN enzymatic activity assay
[2] = biological target: T1, WRN [UniPro: Q14191 (WRN_HUMAN), N500-C946]; assay: WRN unwinding assay (FORKF DNA, fluorescence); type: biochemical; settings: Table 14

T1 sequence (Q14191 500-946): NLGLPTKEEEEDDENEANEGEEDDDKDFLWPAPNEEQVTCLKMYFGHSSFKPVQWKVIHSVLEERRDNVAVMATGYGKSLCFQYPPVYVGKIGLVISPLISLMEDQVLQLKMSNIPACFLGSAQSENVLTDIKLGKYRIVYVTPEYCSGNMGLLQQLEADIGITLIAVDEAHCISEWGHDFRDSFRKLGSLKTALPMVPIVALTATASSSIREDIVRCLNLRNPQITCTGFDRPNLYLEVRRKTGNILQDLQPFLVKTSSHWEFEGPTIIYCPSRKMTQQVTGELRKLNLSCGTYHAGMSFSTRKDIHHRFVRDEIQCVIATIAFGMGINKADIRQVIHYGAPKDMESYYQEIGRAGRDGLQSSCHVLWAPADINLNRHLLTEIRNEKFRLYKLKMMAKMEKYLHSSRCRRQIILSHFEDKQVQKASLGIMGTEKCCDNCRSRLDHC

SMILES | IC50 [1] [nM] | IC50 [2] [nM]
CCc1c(N2CCN(C(=O)c3cc(-c4cc(OC)ncc4F)[nH]n3)CC2)c(=O)n2nc(C3=CCOCC3)nc2n1CC(=O)Nc1ccc(C(F)(F)F)cc1Cl [Example 9, N-(2-Chloro-4-(trifluoromethyl)phenyl)-2-(2-(3,6-dihydro-2H-pyran-4-yl)-5-ethyl-6-(4-(5-(5-fluoro-2-methoxypyridin-4-yl)-1H-pyrazole-3-carbonyl)piperazin-1-yl)-7-oxo-[1,2,4]triazolo[1,5-a]pyrimidin-4(7H)-yl)acetamide] | 100 to 1000 | > 1000
CCc1c(N2CCN(S(=O)(=O)CC)CC2)c(=O)n2nc(C3=CCOCC3)nc2n1CC(=O)Nc1ccc(C(F)(F)F)cc1Cl [Example 11, N-(2-Chloro-4-(trifluoromethyl)phenyl)-2-(2-(3,6-dihydro-2H-pyran-4-yl)-5-ethyl-6-(4-(ethylsulfonyl)piperazin-1-yl)-7-oxo-[1,2,4]triazolo[1,5-a]pyrimidin-4(7H)-yl)acetamide] | 100 to 1000 | > 1000
CCc1c(N2CCN(C(=O)CNC(=O)c3ccccc3)CC2)c(=O)n2nc(C(C)(C)C)nc2n1CC(=O)Nc1ccc(C(F)(F)F)cc1Cl [Example 237, N-(2-(4-(2-(Tert-butyl)-4-(2-((2-chloro-4-(trifluoromethyl)phenyl)amino)-2-oxoethyl)-5-ethyl-7-oxo-4,7-dihydro-[1,2,4]triazolo[1,5-a]pyrimidin-6-yl)piperazin-1-yl)-2-oxoethyl)benzamide] | 100 to 1000 | 100 to 1000
CCc1c(N2CCN(C(=O)CNC(=O)c3cc(NC)ccc3F)CC2)c(=O)n2nc(N3CCOCC3)nc2n1CC(=O)Nc1ccc(C(F)(F)F)cc1Cl [Example 250] | < 100 | < 100
CCc1c(N2CCN(C(=O)CNC(=O)c3ncnc(C)c3O)CC2)c(=O)n2nc(N3CCOCC3)nc2n1CC(=O)Nc1ccc(C(F)(F)F)cc1Cl [Example 377, N-(2-(4-(4-(2-((2-Chloro-4-(trifluoromethyl)phenyl)amino)-2-oxoethyl)-5-ethyl-2-morpholino-7-oxo-4,7-dihydro-[1,2,4]triazolo[1,5-a]pyrimidin-6-yl)piperazin-1-yl)-2-oxoethyl)-5-hydroxy-6-methylpyrimidine-4-carboxamide] | < 100 | < 100
CCOC(=O)c1cnc2oc(C(=O)N3CCN(c4c(CC)n(CC(=O)Nc5ccc(C(F)(F)F)cc5Cl)c5nc(C6=CCOCC6)nn5c4=O)CC3)cc2c1O [Example 53, Ethyl 2-(4-(4-(2-((2-chloro-4-(trifluoromethyl)phenyl)amino)-2-oxoethyl)-2-(3,6-dihydro-2H-pyran-4-yl)-5-ethyl-7-oxo-4,7-dihydro-[1,2,4]triazolo[1,5-a]pyrimidin-6-yl)piperazine-1-carbonyl)-4-hydroxyfuro[2,3-b]pyridine-5-carboxylate] | < 100 | 100 to 1000
CCc1c(N2CCN(C(=O)C(=O)Nc3nccs3)CC2)c(=O)n2nc(C3=CCOCC3)nc2n1CC(=O)Nc1ccc(C(F)(F)F)cc1F [Example 227, 2-(4-(2-(3,6-Dihydro-2H-pyran-4-yl)-5-ethyl-4-(2-((2-fluoro-4-(trifluoromethyl)phenyl)amino)-2-oxoethyl)-7-oxo-4,7-dihydro-[1,2,4]triazolo[1,5-a]pyrimidin-6-yl)piperazin-1-yl)-2-oxo-N-(thiazol-2-yl)acetamide] | < 100 | < 100
CCc1c(N2CCN(C(=O)c3nccc4[nH]ccc34)CC2)c(=O)n2nc(C3=CCOCC3)nc2n1CC(=O)Nc1ccc(Cl)cc1C(F)(F)F [Example 67, 2-(6-(4-(1H-Pyrrolo[3,2-c]pyridine-4-carbonyl)piperazin-1-yl)-2-(3,6-dihydro-2H-pyran-4-yl)-5-ethyl-7-oxo-[1,2,4]triazolo[1,5-a]pyrimidin-4(7H)-yl)-N-(4-chloro-2-(trifluoromethyl)phenyl)acetamide] | < 100 | < 100
CCc1c(N2CCN(C(=O)c3cnc4sccc4c3O)CC2)c(=O)n2nc(C3=CCOCC3)nc2n1CC(=O)Nc1ccc(C(F)(F)F)cc1Cl [Example 55, N-(2-Chloro-4-(trifluoromethyl)phenyl)-2-(2-(3,6-dihydro-2H-pyran-4-yl)-5-ethyl-6-(4-(4-hydroxythieno[2,3-b]pyridine-5-carbonyl)piperazin-1-yl)-7-oxo-[1,2,4]triazolo[1,5-a]pyrimidin-4(7H)-yl)acetamide] | < 100 | < 100
CCc1c(N2CCN(C(=O)CNC(=O)Nc3cc(F)ccc3F)CC2)c(=O)n2nc(C3=CCOCC3)nc2n1CC(=O)Nc1ccc(C(F)(F)F)cc1Cl [Example 186, N-(2-Chloro-4-(trifluoromethyl)phenyl)-2-(6-(4-(((2,5-difluorophenyl)carbamoyl)glycyl)piperazin-1-yl)-2-(3,6-dihydro-2H-pyran-4-yl)-5-ethyl-7-oxo-[1,2,4]triazolo[1,5-a]pyrimidin-4(7H)-yl)acetamide] | < 100 | < 100

Results, then the molecule that gave them:

IC50 [1] [nM] | IC50 [2] [nM] | SMILES
< 100 | < 100 | CCc1c(N2CCN(C(=O)CNC(=O)Cc3cscn3)CC2)c(=O)n2nc(C3=CCOCC3)nc2n1CC(=O)Nc1ccc(C(F)(F)F)cc1Cl [Example 276, N-(2-Chloro-4-(trifluoromethyl)phenyl)-2-(2-(3,6-dihydro-2H-pyran-4-yl)-5-ethyl-7-oxo-6-(4-((2-(thiazol-4-yl)acetyl)glycyl)piperazin-1-yl)-[1,2,4]triazolo[1,5-a]pyrimidin-4(7H)-yl)acetamide]
< 100 | < 100 | CCc1c(N2CCN(C(=O)CNC(=O)c3ccccc3OC)CC2)c(=O)n2nc(C3=CCOCC3)nc2n1CC(=O)Nc1ccc(C(F)(F)F)cc1Cl [Example 112, N-(2-(4-(4-(2-((2-Chloro-4-(trifluoromethyl)phenyl)amino)-2-oxoethyl)-2-(3,6-dihydro-2H-pyran-4-yl)-5-ethyl-7-oxo-4,7-dihydro-[1,2,4]triazolo[1,5-a]pyrimidin-6-yl)piperazin-1-yl)-2-oxoethyl)-2-methoxybenzamide]
< 100 | < 100 | CCc1c(N2CCN(C(=O)C(=O)Nc3nccs3)CC2)c(=O)n2nc(C3=CCOCC3)nc2n1CC(=O)Nc1ccc(C(F)(F)F)cc1Cl [Example 332, 2-(4-(4-(2-((2-Chloro-4-(trifluoromethyl)phenyl)amino)-2-oxoethyl)-2-(3,6-dihydro-2H-pyran-4-yl)-5-ethyl-7-oxo-4,7-dihydro-[1,2,4]triazolo[1,5-a]pyrimidin-6-yl)piperazin-1-yl)-2-oxo-N-(thiazol-2-yl)acetamide]
< 100 | < 100 | CCc1c(N2CCN(C(=O)CNC(=O)c3ccno3)CC2)c(=O)n2nc(C3=CCOCC3)nc2n1CC(=O)Nc1ccc(C(F)(F)F)cc1F [Example 220, N-(2-(4-(2-(3,6-Dihydro-2H-pyran-4-yl)-5-ethyl-4-(2-((2-fluoro-4-(trifluoromethyl)phenyl)amino)-2-oxoethyl)-7-oxo-4,7-dihydro-[1,2,4]triazolo[1,5-a]pyrimidin-6-yl)piperazin-1-yl)-2-oxoethyl)isoxazole-5-carboxamide]
< 100 | < 100 | CCc1c(N2CCN(C(=O)CNC(=O)c3cnccc3O)CC2)c(=O)n2nc(C3=CCOCC3)nc2n1CC(=O)Nc1ccc(C(F)(F)F)cc1Cl [Example 280, N-(2-(4-(4-(2-((2-Chloro-4-(trifluoromethyl)phenyl)amino)-2-oxoethyl)-2-(3,6-dihydro-2H-pyran-4-yl)-5-ethyl-7-oxo-4,7-dihydro-[1,2,4]triazolo[1,5-a]pyrimidin-6-yl)piperazin-1-yl)-2-oxoethyl)-4-hydroxynicotinamide]
< 100 | < 100 | CCc1c(N2CCN(C(=O)c3cnn4cccc4c3O)CC2)c(=O)n2nc(C3=CCOCC3)nc2n1CC(=O)Nc1ccc(C(F)(F)F)cc1Cl [Example 84, N-(2-Chloro-4-(trifluoromethyl)phenyl)-2-(2-(3,6-dihydro-2H-pyran-4-yl)-5-ethyl-6-(4-(4-hydroxypyrrolo[1,2-b]pyridazine-3-carbonyl)piperazin-1-yl)-7-oxo-[1,2,4]triazolo[1,5-a]pyrimidin-4(7H)-yl)acetamide]
< 100 | < 100 | CCc1c(N2CCN(C(=O)CNC(=O)c3c(F)cccc3F)CC2)c(=O)n2nc(C3=CCOCC3)nc2n1CC(=O)Nc1ccc(C(F)(F)F)cc1Cl [Example 124, N-(2-(4-(4-(2-((2-Chloro-4-(trifluoromethyl)phenyl)amino)-2-oxoethyl)-2-(3,6-dihydro-2H-pyran-4-yl)-5-ethyl-7-oxo-4,7-dihydro-[1,2,4]triazolo[1,5-a]pyrimidin-6-yl)piperazin-1-yl)-2-oxoethyl)-2,6-difluorobenzamide]
< 100 | < 100 | CCc1c(N2CCN(C(=O)CNC(=O)c3ccccc3F)CC2)c(=O)n2nc(C3=CCOCC3)nc2n1CC(=O)Nc1cc(Br)cs1 [Example 161, N-(2-(4-(4-(2-((4-Bromothiophen-2-yl)amino)-2-oxoethyl)-2-(3,6-dihydro-2H-pyran-4-yl)-5-ethyl-7-oxo-4,7-dihydro-[1,2,4]triazolo[1,5-a]pyrimidin-6-yl)piperazin-1-yl)-2-oxoethyl)-2-fluorobenzamide]
< 100 | < 100 | CCc1c(N2CCN(C(=O)c3cc4ccsc4[nH]c3=O)CC2)c(=O)n2nc(C3=CCOCC3)nc2n1CC(=O)Nc1ccc(C(F)(F)F)cc1Cl [Example 71, N-(2-Chloro-4-(trifluoromethyl)phenyl)-2-(2-(3,6-dihydro-2H-pyran-4-yl)-5-ethyl-7-oxo-6-(4-(6-oxo-6,7-dihydrothieno[2,3-b]pyridine-5-carbonyl)piperazin-1-yl)-[1,2,4]triazolo[1,5-a]pyrimidin-4(7H)-yl)acetamide]
< 100 | < 100 | CCc1c(N2CCN(C(=O)CNC(=O)c3ccccc3)CC2)c(=O)n2nc(N3Cc4ccncc4C3)nc2n1CC(=O)Nc1ccc(C(F)(F)F)cc1Cl [Example 232, N-(2-(4-(4-(2-((2-Chloro-4-(trifluoromethyl)phenyl)amino)-2-oxoethyl)-2-(1,3-dihydro-2H-pyrrolo[3,4-c]pyridin-2-yl)-5-ethyl-7-oxo-4,7-dihydro-[1,2,4]triazolo[1,5-a]pyrimidin-6-yl)piperazin-1-yl)-2-oxoethyl)benzamide]
